Assay results reported in patent publication US20220265770A1, “TREATING NEURODEGENERATIVE DISEASES WITH PROGRANULIN” (NEURODYN, INC., priority 2008, published 2022).
“Also recorded” adds a separate entry of the source.

Key:
[1] = system: spinal motor neurons; assay: Spinal motor neuron counts and ChAT in BSSG challenged mice treated with PGRN lentivirus; assay type: in vivo, mouse
[2] = system: NSC-34 cells; settings: literature (Tabata et al.); cited from earlier work
[3] = system: male CD-1 mice; assay: Leg extension reflex following synthetic BSSG exposure; assay type: in vivo, mouse; settings: 100 mg/day synthetic BSSG for 15 weeks, then normal chow; weekly, week 0-32, vs control p<0.0001
Method: Three month old male CD-1 mice were fed 100 mg/day of synthetic BSSG for 15 weeks, then permitted to age with a diet of normal lab chow. Leg extension was measured weekly from the initiation of the experiment. Testing was performed as described in Wilson et al., 2004 and Wilson et al., 2005.
The leg extension reflex test was used as a measure of motor neuron dysfunction (Barneoud and Curet, 1999). This test was altered to discriminate more subtle behaviors, creating a scale from 0 to 4. […] This scale allows the measure of progression in a continuous manner over time. A score of 0-4 is assigned based on the response shown by the mouse as follows:
4: Complete extension of both legs (normal).
3: Two legs extended with some tremors and/or punching in a leg.
2: One leg extended, 1 retracted, or tremors in both legs.
1: One leg retracted, tremors in other leg.

[4] = system: male CD-1 mice; assay: Open field motor activity (grid crossings) following synthetic BSSG exposure; assay type: in vivo, mouse; settings: same mice as Example 4; week 28 vs controls, p<0.05
Method: The same mice exposed to BSSG in Example 4 were used to analyze open field motor activity. *=p<0.05 (Student T-test).
For the open field motor activity analysis, mice were placed in a round open field (2 m diameter) for 5 minutes and movements were recorded using a video camera to measure emotionality and exploration (spontaneous motor activity) (Karl et al., 2003). Videos were replayed on a TV and a circular grid was overlaid on the TV screen. Grid crossings were recorded.

[5] = system: motor neurons in lumbar cord; assay: Motor neuron quantification (Nissl, ChAT, CTIP2, caspase-3) after 10 weeks BSSG; assay type: in vivo, mouse; settings: varying doses of synthetic BSSG for 10 weeks, aged 1 or 5 months on normal chow
Excerpt: Six month old male CD-1 mice were fed varying doses of synthetic BSSG for 10 weeks, then allowed to age for 1 month with a diet of normal chow prior to sacrifice (see FIG. 3, panels A-C). Motor neurons were quantified in lumbar cord, by Nissl staining and choline acetyltransferase (ChAT) immunohistochemistry (IHC), as shown in FIG. 3A. Motor neurons were quantified in motor cortex where neurons were detected by IHC against CTIP2 (highly expressed in corticospinal motor neurons), as shown in FIG. 3C. Motor neurons in the lumbar spinal cord of animals permitted to age for 5 months following the cessation of BSSG were quantified after Nissl staining, as shown in FIG. 3D (* P<0.01, ANOVA).
Lumbar spinal cord sections were stained with cresyl violet and ventral horn motor neurons were counted under a 40× objective lens. All motor neurons in the field of view were included in the results. Multiple sections (N=6) from each mouse were used. Counts were conducted on spinal cord sections that were at least 150 μm apart (in the rostral-caudal plane) ensuring that no motor neuron was counted twice. In addition, counts included all apparent motor neurons including motor neurons that may have appeared atrophic or damaged.
Active caspase-3 (Promega, Madison, Wis.) labeling was performed as follows. […] Sections were visualized using fluorescence microscopy. […]

[6] = system: progranulin expression; assay: In situ hybridization of progranulin expression in cervical spinal cord of BSSG fed mice; assay type: in vivo, mouse
Method: Adult male CD-1 mice were fed a diet of either normal chow or chow containing […] per day of synthetic BSSG. Following 10 weeks of feeding with BSSG-containing chow and a further month with normal lab chow, mice were killed and ISH using progranulin specific antisense riboprobes was performed on frozen sections of cervical spinal cord cut in trans-section. High levels of progranulin expression were detected in the anterior horn cells of the control mouse as shown by the section in FIG. 9A. […] A negative control section is shown in FIG. 9C, incubated with a sense probe.
Adult male CD-1 mice were fed a diet of chow containing 10, 100, or 1000 μg per day of synthetic BSSG. Following 10 weeks of feeding with BSSG-containing chow and a further month with normal lab chow, mice were killed and ISH using progranulin specific riboprobes was performed on frozen sections of cervical spinal cord cut in trans-section. […] Additionally, there is a more pronounced loss of progranulin expression per cell as BSSG exposure increases.

[7] = system: caudal primary motor neurons of zebrafish embryos; assay: Zebrafish ventral primary motor axon/nerve growth (znp1 immunostaining); assay type: in vivo
Excerpt: During the first day of zebrafish development, neuromuscular connections are restricted to the three primary motoneurons (CaP, MiP and RoP) per spinal cord hemisegment where they innervate three myotome areas that ultimately develop into body wall muscle. During the first the 24 hpf CaP axons project to establish the common pathway. This is the developmental period encompassed in FIGS. 27 and 28.
Development of ventral primary neurons were examined in whole mount embryos at 26-28 hpf and visualized by immunostaining with znp1 monoclonal antibody that labels primary motor neurons.
There is reduced incidence (P<0.001) of truncated neurons (FIG. 27, Panel D, white arrows) together with increased incidence (P<0.001) of early and late branching (FIG. 27, Panel E, white arrowheads) as shown in Table 2. Data sets were accumulated from 50 embryos (WT, progranulin MO, progranulin MO plus mRNA).
Fish husbandry: Wild type zebrafish were purchased from Aquatica Tropicals (Florida) and maintained on a 14 h/10 h light/dark cycle at 28.5° C. in a laboratory aquarium (Allentown Caging Equipment Co. Inc., Allentown, N.J.). Fish were fed twice daily. In the late afternoon of the day before eggs are required, fish were transferred to a net positioned towards the top of a holding tank and covered. In the morning, after the light cycle begins and spawning has stopped, the eggs that have fallen through the net were collected from the bottom of the tank. Embryos to be used for developmental studies were collected and staged by hours post fertilization (hpf). […]
Microinjection of Pgrn mRNA: For Pgrn mRNA over-expression and rescue experiments the vector was generated as follows: The full-length progranulin-a sequence was purchased from RZPD (Berlin, Germany) as clone UCDMp574E2318Q2 and subcloned into pcDNA3.1-V5/His vector (Invitrogen, Carlsbad, Calif.) using a forward primer that overlapped with the starter AUG a reverse primer that read through the termination codon. […]

[8] = system: NSC-34 cells; assay: NSC-34 proliferation/survival with granulin epithelin modules (CyQUANT NF); assay type: cell-based; settings: 50 or 100 ng/ml, 13 days, RPMI without serum
Method: NSC 34 cells (5000 cell/well) were plated in 96 well plates using 100 ul of DMEM/10% FBS. The following day, the medium was removed and replaced with 100 ul of RPMI (without serum) containing: 0, 50 or 100 ng/ml of grn D or grn F. Cultures were incubated for 13 days following which cell proliferation/survival was determined using the CyQUANT® NF (kit #C35006) assay.
The CyQUANT® NF assay is based on measurement of cellular DNA content via fluorescent dye binding. The extent of proliferation/survival is determined by comparing fluorescence intensity for NSC-34 cells treated with GEMs (50 and 100 ng) relative to untreated controls (Ong).
As per the manufacturers instructions, the protocol included aspiration of growth medium, replacement with 100 ul of dye binding solution per well, incubation for 30 minutes following which the fluorescence intensity of each sample was measured using a fluorescence microplate reader with excitation at ˜485 nm and emission detection at ˜530 nm (FIG. 22). The immortalized motor neuron cell line (NSC-34) responded to incubation with grn F and grn D with either proliferation/survival (grn F) or no effect (grn D) similar to the response of extra neuronal cells incubated in the presence of these GEM's (described in: Tolkatchev D. et al., Protein Sci. 17:711-724, 2008).

[9] = Table 2, average number of motor axon/nerve defects per affected side, n=50, 10 ng PgrnA MO, 100 pg mRNA, 26-28 hpf

## CC[C@H](CC[C@@H](C)[C@H]1CC[C@H]2[C@@H]3CC=C4C[C@@H](O[C@@H]5O[C@H](CO)[C@@H](O)[C@H](O)[C@H]5O)CC[C@]4(C)[C@H]3CC[C@]12C)C(C)C [BSSG, β-sitosterol β-D-glucoside]
[1]; control (saline treated) BSSG exposed mice
  numbers of ChAT positive motor neurons: appeared to be reduced
[1]; saline treated BSSG exposed mice relative to all other treatment groups
  choline acetyl transferase (ChAT) activity in anterior horn cells: decreased activity
[2]
  cytotoxicity in NSC-34 cell line: cause cytotoxicity
[3]
  leg extension reflex (score 0-4): decline in leg extension reflex
[4]
  open field motor activity (grid crossing): significantly decreased movement
[5]
  motor neurons in lumbar spinal cord: Progressive loss of motor neurons; also recorded: dose dependent loss of motor neuron health
[6]; 10, 100 or 1000 μg per day BSSG, 10 weeks plus 1 month normal chow
  neuropathology and loss of progranulin expressing cells in cervical spinal cord: more pronounced neuropathology
[6]; 1000 μs per day synthetic BSSG 10 weeks plus 1 month normal chow
  progranulin expression in anterior horn cells of cervical spinal cord (ISH): decreased in intensity and was observed in fewer cells of the anterior horn

## PGRN-MO2: morpholino to 5′UTR of zebrafish pgrn-a, 5′-GAGCAGGTGGATTTGTGAACAGCGG-3′ (all phosphorodiamidate morpholino (PMO))
[7]; [9]
  Branching: 1.0 ± 0.19*c
  Truncation: 3.02 ± 0.31***a
[7]; whole mount embryos 26-28 hpf, znp1
  primary motor neuron phenotype: range of morphant phenotypes

B1: grn D: granulin epithelin module, SEQ ID NO: 10, His-tagged (protein)
chain: AMDIGCDQHTSCPVGQTCCPSLGGSWACCQLPHAVCCEDRQHCCPAGYTCNVKARSCEKLAAALEHHHHHH
modifications: His tag
[8]
  cell proliferation/survival (CyQUANT NF fluorescence): no effect
